Some test systems named below: KM12 colon; HT29 colon; HS 578T breast; A549 NSCLC; SNB-19 CNS; NCI-H23 lung; SR leukemia; UACC-257 melanoma; NCI-H226 lung; OVCAR-8 ovarian.
Holding throughout (experiment): NCI-60 cell line screen, 48 h

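1) Cells in 96-well plates. 2) Compound, 48 h, 5 concentrations. 3) Linear interpolation between surrounding doses. 4) Unreached endpoint = highest concentration. GI50 is the concentration that inhibits growth by half. The concentration for full growth arrest is given as TGI.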

Take `Cc1nnc(NC(=O)c2nc(S(=O)(=O)Cc3ccc(F)cc3)ncc2Cl)s1`: the GI50 with KM12 colon is 18.5 µM; in the assay on HT29 colon, 2.34 µM; in the assay with HS 578T breast, 12.7 µM; with A549 NSCLC, 18.8 µM; with SNB-19 CNS, 15.6 µM; in the assay with NCI-H23 lung it was 12.5 µM. Besides, the GI50 in the assay with SR leukemia was 1.44 µM; in the assay with UACC-257 melanoma, 2.1 µM; in the assay with NCI-H226 lung, 6.27 µM; with OVCAR-8 ovarian, 2.72 µM. In addition, the TGI came out at 37 µM in the assay with KM12 colon; 5.8 µM with HT29 colon; 50.8 µM with HS 578T breast; 35.3 µM in the assay on A549 NSCLC; 35.1 µM in the assay on SNB-19 CNS; 32.5 µM in the assay on NCI-H23 lung. In addition, the TGI in the assay with SR leukemia was 3.55 µM; in the assay on UACC-257 melanoma, 7.61 µM; in the assay with NCI-H226 lung, 25.7 µM; with OVCAR-8 ovarian, 7.77 µM.
Take `CN1CC[C@@H](NC(=O)Nc2ccc(C#N)cc2)C[C@@H]1c1nc2ccccc2[nH]1`: the GI50 in the assay on KM12 colon is greater than 100 µM; in the assay on HT29 colon, greater than 74.2 µM; in the assay with HS 578T breast it was greater than 100 µM; with A549 NSCLC it was greater than 100 µM; with SNB-19 CNS, greater than 100 µM; in the assay on NCI-H23 lung it was greater than 42.3 µM. Moreover, the GI50 was 48.2 µM in the assay with SR leukemia, greater than 100 µM in the assay on UACC-257 melanoma, greater than 100 µM with NCI-H226 lung and greater than 100 µM with OVCAR-8 ovarian. The TGI was greater than 100 µM in the assay with KM12 colon; greater than 100 µM in the assay on HT29 colon; greater than 100 µM in the assay with HS 578T breast; greater than 100 µM in the assay with A549 NSCLC; greater than 100 µM in the assay on SNB-19 CNS; greater than 60.8 µM in the assay on NCI-H23 lung. Further, the TGI in the assay with SR leukemia, in the assay with UACC-257 melanoma, in the assay with NCI-H226 lung and with OVCAR-8 ovarian was greater than 100 µM each time.
For `C=C1C(=O)O[C@H]2[C@H]1CC/C(COC(=O)NCc1ccc(Cn3c(=O)sn(-c4ccc(OC)cc4)c3=O)cc1)=C\CC[C@@]1(C)O[C@@H]21`, the GI50 in the assay on KM12 colon was 3.75 µM; in the assay on HT29 colon it was 1.96 µM; with HS 578T breast it was 2.92 µM; with A549 NSCLC, 15.2 µM; with SNB-19 CNS, 11.7 µM; with NCI-H23 lung, 2.97 µM. The GI50 with SR leukemia is 0.535 µM; in the assay on UACC-257 melanoma, 2.03 µM; in the assay on NCI-H226 lung, 12.9 µM; in the assay on OVCAR-8 ovarian it was 2.37 µM. The TGI with KM12 colon stood at 14 µM; in the assay with HT29 colon, 3.51 µM; with HS 578T breast, 14.2 µM; in the assay on A549 NSCLC, 29.1 µM; in the assay on SNB-19 CNS, 24.6 µM; in the assay with NCI-H23 lung, 9.9 µM. Moreover, the TGI in the assay on SR leukemia came to 5.2 µM; in the assay on UACC-257 melanoma it was 4.34 µM; in the assay on NCI-H226 lung, 30.7 µM; with OVCAR-8 ovarian, 5.82 µM.
Take `Nc1n[nH]c2cc(F)c([C@@H]3Nc4ccc5[nH]ncc5c4[C@H]4C5CCC(C5)[C@@H]34)cc12` (stereo not given in full): the GI50 is 0.18 µM with KM12 colon; 0.182 µM with HT29 colon; 0.173 µM in the assay on HS 578T breast; 0.201 µM in the assay with A549 NSCLC; 1.03 µM in the assay on SNB-19 CNS; 0.193 µM with NCI-H23 lung. Besides, the GI50 was 0.125 µM in the assay with SR leukemia, 3.98 µM in the assay on UACC-257 melanoma, 0.192 µM with NCI-H226 lung and 0.193 µM in the assay on OVCAR-8 ovarian. Also, the TGI was 4.01 µM in the assay on KM12 colon; greater than 50 µM in the assay on HT29 colon; 11.6 µM in the assay with HS 578T breast; greater than 50 µM in the assay with A549 NSCLC; greater than 35 µM in the assay on SNB-19 CNS; 7.77 µM with NCI-H23 lung. Besides, the TGI in the assay on SR leukemia is greater than 50 µM; with UACC-257 melanoma it was 44.8 µM; in the assay on NCI-H226 lung, 3.38 µM; in the assay with OVCAR-8 ovarian it was greater than 30.6 µM.
Consider `CCN1C(=O)N(c2ccccc2)C2NC(=S)N(/N=C/C=C/c3ccccc3OC)C21` (stereo not given), for which the GI50 in the assay on KM12 colon is 0.101 µM; with HT29 colon, 0.111 µM; with HS 578T breast, 0.0858 µM; in the assay on A549 NSCLC, 0.121 µM; in the assay with SNB-19 CNS it was 0.133 µM; in the assay on NCI-H23 lung, 0.174 µM. For the same compound, the GI50 is 0.086 µM with SR leukemia, 3.44 µM in the assay with UACC-257 melanoma, 0.3 µM in the assay on NCI-H226 lung and 0.118 µM with OVCAR-8 ovarian. For the same compound, the TGI in the assay on KM12 colon is greater than 36.1 µM; in the assay on HT29 colon, greater than 100 µM; with HS 578T breast it was greater than 100 µM; in the assay with A549 NSCLC, greater than 100 µM; in the assay with SNB-19 CNS it was greater than 52.9 µM; in the assay with NCI-H23 lung, greater than 61.6 µM. In addition, the TGI with SR leukemia was greater than 48.5 µM; with UACC-257 melanoma, greater than 88.5 µM; with NCI-H226 lung, greater than 40 µM; in the assay with OVCAR-8 ovarian, greater than 84.3 µM.
With `O=C(O)c1ccc2c(c1C(=O)O)C(=O)OC2(c1ccc(O)cc1)c1ccc(O)cc1`, the TGI in the assay with KM12 colon, in the assay on HT29 colon, in the assay with HS 578T breast, with A549 NSCLC, with SNB-19 CNS and with NCI-H23 lung was greater than 100 µM in each case. In addition, the TGI in the assay on SR leukemia, with UACC-257 melanoma, in the assay on NCI-H226 lung and in the assay with OVCAR-8 ovarian was greater than 100 µM in each case.
`N#Cc1c[nH]n2c(N=Nc3ccc(Cl)cc3)c(O)nc12`: the GI50 in the assay on KM12 colon was 29.4 µM; in the assay with HT29 colon, 50.2 µM; with HS 578T breast it was 56.9 µM; with A549 NSCLC, 31.9 µM; in the assay with SNB-19 CNS it was 33.8 µM; in the assay on NCI-H23 lung, 18 µM. Also, the GI50 is 25.4 µM with SR leukemia, 20.1 µM in the assay with UACC-257 melanoma, 18.5 µM with NCI-H226 lung and 32 µM in the assay with OVCAR-8 ovarian. Moreover, the TGI was greater than 100 µM with KM12 colon; greater than 100 µM with HT29 colon; greater than 100 µM with HS 578T breast; greater than 100 µM with A549 NSCLC; greater than 100 µM in the assay with SNB-19 CNS; 51.2 µM in the assay on NCI-H23 lung. The TGI is greater than 100 µM in the assay with SR leukemia, 57.9 µM in the assay with UACC-257 melanoma, 43.3 µM in the assay with NCI-H226 lung and greater than 100 µM in the assay with OVCAR-8 ovarian.
As for `O=C(/C(=C/c1ccc([N+](=O)[O-])cc1)SCc1ccccc1)c1ccc(Cl)cc1`, the GI50 was 2.34 µM in the assay on KM12 colon; 2.54 µM in the assay on HT29 colon; 2.4 µM in the assay with HS 578T breast; 15.1 µM in the assay on A549 NSCLC; 3.59 µM in the assay with SNB-19 CNS; 3.14 µM with NCI-H23 lung. Also, the GI50 in the assay with SR leukemia was 1.76 µM; with UACC-257 melanoma, 6.36 µM; in the assay with NCI-H226 lung, 4.53 µM; in the assay with OVCAR-8 ovarian, 3.98 µM. In addition, the TGI is 6.91 µM in the assay with KM12 colon; 5.75 µM in the assay with HT29 colon; 8.2 µM in the assay on HS 578T breast; 32.2 µM in the assay on A549 NSCLC; 15.6 µM with SNB-19 CNS; 14.1 µM in the assay on NCI-H23 lung. Moreover, the TGI is 6.63 µM in the assay on SR leukemia, 19.4 µM with UACC-257 melanoma, 34.1 µM in the assay on NCI-H226 lung and 15.2 µM in the assay on OVCAR-8 ovarian.
Take `CC(C)c1cc2c(cc1S(=O)(=O)O)[C@@]1(C)CCC[C@@](C)(C(=O)O)C1CC2` (stereo not given in full): the TGI in the assay on KM12 colon, with HT29 colon, in the assay on HS 578T breast, in the assay on A549 NSCLC, with SNB-19 CNS and with NCI-H23 lung was greater than 100 µM throughout. Also, the TGI in the assay with SR leukemia, in the assay with UACC-257 melanoma, in the assay on NCI-H226 lung and in the assay with OVCAR-8 ovarian was greater than 100 µM each time.

The values above are taken from PubChem BioAssay (NCI).
